Calls of active or inactive are those of the source.
How the values were obtained:
[1] = biological target: Voltage-dependent T-type calcium channel subunit alpha-1H (Homo sapiens, UniProt O95180); type: functional;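 further: channel activity triggered by adding a high calcium stimulation buffer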
[2] = system: H9c2; assay: cells; type: functional, cell-based; details: Rattus norvegicus, H9c2, Myocardium;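 further: confirmatory concentration-response retest of ultra-high-throughput screening hits for modulation of myocardial damage; cell death induced by hydrogen peroxide oxidative stress; compound pretreatment for 60 min then peroxide exposure for 2 h; potency is for protecting the cells against peroxide damage rather than for killing them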
[3] = biological target: Cytochrome P450 2C19 (Homo sapiens, UniProt P33261); assay: Cytochrome panel assay with activity outcomes. Panel member name: p450-cyp2c19 Compounds with AC50 equal or less than 10 uM are considered active; type: functional; details: read-out: AC50
Sequence of Cytochrome P450 2C19 (P33261 whole entry): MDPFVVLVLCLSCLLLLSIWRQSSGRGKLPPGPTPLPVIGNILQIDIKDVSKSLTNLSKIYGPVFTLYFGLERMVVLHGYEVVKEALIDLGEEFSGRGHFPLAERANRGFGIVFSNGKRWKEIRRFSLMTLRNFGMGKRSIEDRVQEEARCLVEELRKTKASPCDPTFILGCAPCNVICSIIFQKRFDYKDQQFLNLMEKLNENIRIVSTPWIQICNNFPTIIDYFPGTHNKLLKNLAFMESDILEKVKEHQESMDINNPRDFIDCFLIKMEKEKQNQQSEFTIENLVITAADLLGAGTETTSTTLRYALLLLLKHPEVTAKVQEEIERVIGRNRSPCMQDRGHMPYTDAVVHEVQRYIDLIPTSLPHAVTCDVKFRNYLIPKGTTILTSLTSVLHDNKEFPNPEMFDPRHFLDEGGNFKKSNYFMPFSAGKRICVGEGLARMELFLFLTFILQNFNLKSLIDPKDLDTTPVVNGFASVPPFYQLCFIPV

[4] = biological target: Cytochrome P450 2D6 (Homo sapiens, UniProt P10635);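 further: CYP2D6 member of a cytochrome P450 panel assay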
Sequence of Cytochrome P450 2D6 (P10635 whole entry): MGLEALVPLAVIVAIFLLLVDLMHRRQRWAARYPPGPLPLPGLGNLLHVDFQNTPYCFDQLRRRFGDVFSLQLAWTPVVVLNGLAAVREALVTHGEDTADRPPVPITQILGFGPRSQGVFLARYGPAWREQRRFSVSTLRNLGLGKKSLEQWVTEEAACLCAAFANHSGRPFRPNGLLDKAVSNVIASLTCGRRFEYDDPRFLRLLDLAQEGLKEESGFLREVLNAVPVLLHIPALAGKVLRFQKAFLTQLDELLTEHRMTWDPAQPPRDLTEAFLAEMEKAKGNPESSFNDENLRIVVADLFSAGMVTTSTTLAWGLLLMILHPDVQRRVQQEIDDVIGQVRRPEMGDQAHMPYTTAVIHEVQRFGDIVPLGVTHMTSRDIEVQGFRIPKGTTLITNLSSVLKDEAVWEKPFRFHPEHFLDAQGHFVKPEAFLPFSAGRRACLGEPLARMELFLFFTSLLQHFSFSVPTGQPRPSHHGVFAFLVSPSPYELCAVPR

[5] = biological target: Nonstructural protein 1 (Influenza A virus, UniProt Q194T2); type: functional, Influenza A virus (A/California/07/2009(H1N1))
Sequence of Nonstructural protein 1 (Q194T2 whole entry): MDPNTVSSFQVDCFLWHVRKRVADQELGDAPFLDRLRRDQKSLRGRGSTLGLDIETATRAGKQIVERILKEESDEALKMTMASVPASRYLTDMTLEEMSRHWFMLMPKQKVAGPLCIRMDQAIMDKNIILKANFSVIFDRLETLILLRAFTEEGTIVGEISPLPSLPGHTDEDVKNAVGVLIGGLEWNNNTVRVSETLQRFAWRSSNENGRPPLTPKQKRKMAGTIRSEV

[6] = system: Streptococcus sp. 'group A'; assay: Streptococcus pyogenes SK(-)GAS viability under kanamycin – luminescence, BacTiterGlo, confirmation, counter-screen for streptokinase expression inhibitor project, dose response (AID 1900); type: functional, organism-based
[7] = biological target: T1, Streptokinase A (Streptococcus pyogenes serotype M1, UniProt P10520); assay: viability-normalized secreted streptokinase activity reduction – plasminogen activation absorbance, OD405, dose response (AID 1914); type: functional, Streptococcus pyogenes M1 GAS;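 further: secreted streptokinase activity via plasminogen activation per viability signal from cell pellet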
T1 sequence (P10520 whole entry): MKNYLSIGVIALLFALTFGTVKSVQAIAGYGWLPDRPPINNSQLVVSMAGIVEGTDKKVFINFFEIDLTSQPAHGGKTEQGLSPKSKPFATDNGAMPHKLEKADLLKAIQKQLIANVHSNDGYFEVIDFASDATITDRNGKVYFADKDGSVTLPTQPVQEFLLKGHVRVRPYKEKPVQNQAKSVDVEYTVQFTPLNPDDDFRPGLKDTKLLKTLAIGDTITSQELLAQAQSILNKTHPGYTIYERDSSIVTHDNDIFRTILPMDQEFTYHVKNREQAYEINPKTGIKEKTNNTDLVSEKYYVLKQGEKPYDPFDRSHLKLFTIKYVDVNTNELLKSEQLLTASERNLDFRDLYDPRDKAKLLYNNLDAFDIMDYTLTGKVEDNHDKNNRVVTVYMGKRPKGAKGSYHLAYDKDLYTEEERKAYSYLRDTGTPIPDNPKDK

[8] = system: Streptococcus; assay: GAS UMAA2166 growth inhibition – luminescence, BacTiterGlo, counter-screen for streptokinase expression inhibitor project, dose response (AID 1915); type: functional, organism-based;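 further: potency for reduction of bacterial viability or growth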
[9] = Luminescence Cell-Based Dose Retest to Confirm Inhibitors of Cancer Stem Cells. [Related pubchem assays (depositor defined):AID2717, AID2721]; type: functional; details: Homo sapiens
[10] = system: INS1; assay: INS-1E survival protection against cytokine death – cell-based, luminescence, retest, dose response (AID 449756); type: functional; details: Rattus norvegicus;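 further: cell death triggered by IL-1 beta plus TNF-alpha plus IFN-gamma mixture; protective hits raise ATP signal compared with cytokine alone wells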
[11] = microbe, parasite or virus in culture; type: functional; details: Mycobacterium tuberculosis
[12] = HEK-293T viability loss after treatment – luminescence, T-cell screen hits, cytotoxicity control for TCR NF-kB inhibitor project, dose response (AID 489026); type: functional, cell-based;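 further: cells exposed to compound about 14 hours before the viability readout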
[13] = biological target: T2, Protein skinhead-1 (Caenorhabditis elegans, UniProt P34707); type: functional
T2 sequence (P34707 whole entry): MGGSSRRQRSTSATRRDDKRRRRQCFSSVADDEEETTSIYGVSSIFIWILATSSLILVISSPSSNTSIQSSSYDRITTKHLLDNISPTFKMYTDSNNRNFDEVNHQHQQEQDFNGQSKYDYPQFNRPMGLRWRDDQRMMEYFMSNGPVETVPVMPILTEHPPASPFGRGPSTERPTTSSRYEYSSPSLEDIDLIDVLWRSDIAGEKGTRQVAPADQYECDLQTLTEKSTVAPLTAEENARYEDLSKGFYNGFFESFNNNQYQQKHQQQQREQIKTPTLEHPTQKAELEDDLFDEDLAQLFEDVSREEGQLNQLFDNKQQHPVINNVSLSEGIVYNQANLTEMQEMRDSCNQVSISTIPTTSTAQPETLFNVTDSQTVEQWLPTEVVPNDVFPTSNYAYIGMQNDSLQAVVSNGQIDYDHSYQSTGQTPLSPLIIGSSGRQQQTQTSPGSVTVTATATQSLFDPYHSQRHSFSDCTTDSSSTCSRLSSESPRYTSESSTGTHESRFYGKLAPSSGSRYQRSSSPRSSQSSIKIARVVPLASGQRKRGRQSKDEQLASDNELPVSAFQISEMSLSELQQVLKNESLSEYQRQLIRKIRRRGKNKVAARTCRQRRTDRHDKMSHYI

[14] = loss of viability in HepG2 cells – cell-based, CellTiter-Glo, cherry-picked, cytotoxicity control for Shn3 inhibitor project, dose response (AID 624134); type: functional
[15] = non-specific 3'UTR reporter inhibition in Clone20-Shn3RL – cell-based, Renilla luciferase, cherry-picked, counter-screen for Shn3 inhibitor project, dose response (AID 624133); type: functional
[16] = reduction of Shn3 3'UTR-driven luciferase in osteoblasts – cell-based, Clone20 osteoblasts, firefly luciferase, cherry-picked, dose response (AID 624132); type: functional;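 further: firefly luciferase luminescence from reporter carrying the Shn3 3'UTR in osteoblasts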
[17] = blockers of bursicon-stimulated LGR2 cAMP reporter – cell-based, HEK293, CRE-luciferase reporter, cherry pick, set 2, dose response (AID 743343); type: functional;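 further: transfected cells were stimulated with diluted bursicon conditioned medium after compound addition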
[18] = blockade of melanocortin 4 receptor signaling – cell-based, plate reader, cherry pick, counter-screen for LGR2 antagonist project, dose response (AID 743444); type: functional;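 further: transfected HEK 293 cells stimulated with alpha-MSH peptide; potency of inhibitors of the alpha-MSH evoked signal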
[19] = toxicity toward HepG2 liver cells – cell-based, plate reader, cherry-pick, antagonist series, cytotoxicity control, dose response (AID 743416); type: functional
[20] = cells; type: functional, cell-based
[21] = cells; type: functional, cell-based; remark: listed apart in the source
[22] = Luminescence Cell-Based Dose Response HTS to Identify Activators of Luciferase Translation or Activity in H4 […] Cells. [Related pubchem assays: 1829 (Project Summary), 1814 (Primary HTS)]; type: functional
[23] = system: H4; assay: Luminescence Cell-Based Dose Response HTS to Identify Activators of 5'UTR Stem-Loop Driven Prion Protein mRNA Translation in H4 Neuroglioblastoma Cells. [Related pubchem assays: 1829 (Project Summary), 1814 (Primary HTS)]; type: functional; details: Homo sapiens
[24] = Luminescence Cell-Based Dose Confirmation HTS to Identify Activators of 5'UTR Stem-Loop Driven Alpha-Synuclein mRNA Translation in H4 Neuroglioblastoma Cells. [Related pubchem assays: 1829 (Project Summary), 1814 (Primary HTS)]; type: functional
[25] = NIH3T3 cell viability loss – ATP luminescence, mouse fibroblasts, counter-screen, dose response (AID 2010); type: functional, cell-based;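 further: cells exposed to compound for about 90 hours before reading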
[26] = biological target: T3, Carboxy-terminal domain RNA polymerase II polypeptide A small phosphatase 1 (Homo sapiens, UniProt Q9GZU7); assay: CTDSP1 inhibitors, concentration-response, biochemical, absorbance readout, ultra-high-throughput screen actives (AID 540297); type: functional
T3 sequence (Q9GZU7 whole entry): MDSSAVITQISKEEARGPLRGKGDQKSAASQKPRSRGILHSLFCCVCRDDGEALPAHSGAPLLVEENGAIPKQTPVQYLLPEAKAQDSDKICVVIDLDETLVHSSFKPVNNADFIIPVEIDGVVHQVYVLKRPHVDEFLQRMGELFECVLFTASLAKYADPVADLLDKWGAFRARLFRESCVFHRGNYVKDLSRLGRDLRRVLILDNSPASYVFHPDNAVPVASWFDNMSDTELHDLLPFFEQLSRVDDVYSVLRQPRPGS

[27] = Trypanosoma cruzi growth suppression in host cells – NIH3T3 host cells, beta-gal luminescence, confirmation (AID 2044); type: functional, cell-based;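 further: intracellular parasites grown in NIH/3T3 mouse fibroblasts as host cells; luminescent beta-galactosidase reporter signal from transgenic T. cruzi replicating inside host cells; inhibitors lower the luminescence signal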
[28] = A549 cell cytotoxicity, dose response, cytotoxicity control, plate reader, cherry-pick, antagonist series (AID 743412); type: functional, cell-based
[29] = biological target: T4, Cytochrome P450 1A2 (Homo sapiens, UniProt P05177);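 further: PubChem cytochrome P450 panel assay, CYP1A2 panel member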
T4 sequence (P05177 whole entry): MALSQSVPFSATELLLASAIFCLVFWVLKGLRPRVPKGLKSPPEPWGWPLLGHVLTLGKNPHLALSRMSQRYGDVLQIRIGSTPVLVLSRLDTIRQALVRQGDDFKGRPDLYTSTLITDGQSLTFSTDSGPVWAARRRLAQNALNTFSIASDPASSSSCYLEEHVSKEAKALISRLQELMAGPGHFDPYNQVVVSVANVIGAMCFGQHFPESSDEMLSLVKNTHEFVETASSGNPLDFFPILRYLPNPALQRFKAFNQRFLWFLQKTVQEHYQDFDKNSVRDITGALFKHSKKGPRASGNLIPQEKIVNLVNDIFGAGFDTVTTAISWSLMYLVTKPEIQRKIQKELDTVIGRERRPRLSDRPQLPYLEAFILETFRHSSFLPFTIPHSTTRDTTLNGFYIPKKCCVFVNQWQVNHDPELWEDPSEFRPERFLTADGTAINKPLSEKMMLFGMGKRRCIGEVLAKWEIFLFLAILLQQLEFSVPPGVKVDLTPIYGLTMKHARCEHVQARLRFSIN

Sequence of Voltage-dependent T-type calcium channel subunit alpha-1H (O95180 whole entry): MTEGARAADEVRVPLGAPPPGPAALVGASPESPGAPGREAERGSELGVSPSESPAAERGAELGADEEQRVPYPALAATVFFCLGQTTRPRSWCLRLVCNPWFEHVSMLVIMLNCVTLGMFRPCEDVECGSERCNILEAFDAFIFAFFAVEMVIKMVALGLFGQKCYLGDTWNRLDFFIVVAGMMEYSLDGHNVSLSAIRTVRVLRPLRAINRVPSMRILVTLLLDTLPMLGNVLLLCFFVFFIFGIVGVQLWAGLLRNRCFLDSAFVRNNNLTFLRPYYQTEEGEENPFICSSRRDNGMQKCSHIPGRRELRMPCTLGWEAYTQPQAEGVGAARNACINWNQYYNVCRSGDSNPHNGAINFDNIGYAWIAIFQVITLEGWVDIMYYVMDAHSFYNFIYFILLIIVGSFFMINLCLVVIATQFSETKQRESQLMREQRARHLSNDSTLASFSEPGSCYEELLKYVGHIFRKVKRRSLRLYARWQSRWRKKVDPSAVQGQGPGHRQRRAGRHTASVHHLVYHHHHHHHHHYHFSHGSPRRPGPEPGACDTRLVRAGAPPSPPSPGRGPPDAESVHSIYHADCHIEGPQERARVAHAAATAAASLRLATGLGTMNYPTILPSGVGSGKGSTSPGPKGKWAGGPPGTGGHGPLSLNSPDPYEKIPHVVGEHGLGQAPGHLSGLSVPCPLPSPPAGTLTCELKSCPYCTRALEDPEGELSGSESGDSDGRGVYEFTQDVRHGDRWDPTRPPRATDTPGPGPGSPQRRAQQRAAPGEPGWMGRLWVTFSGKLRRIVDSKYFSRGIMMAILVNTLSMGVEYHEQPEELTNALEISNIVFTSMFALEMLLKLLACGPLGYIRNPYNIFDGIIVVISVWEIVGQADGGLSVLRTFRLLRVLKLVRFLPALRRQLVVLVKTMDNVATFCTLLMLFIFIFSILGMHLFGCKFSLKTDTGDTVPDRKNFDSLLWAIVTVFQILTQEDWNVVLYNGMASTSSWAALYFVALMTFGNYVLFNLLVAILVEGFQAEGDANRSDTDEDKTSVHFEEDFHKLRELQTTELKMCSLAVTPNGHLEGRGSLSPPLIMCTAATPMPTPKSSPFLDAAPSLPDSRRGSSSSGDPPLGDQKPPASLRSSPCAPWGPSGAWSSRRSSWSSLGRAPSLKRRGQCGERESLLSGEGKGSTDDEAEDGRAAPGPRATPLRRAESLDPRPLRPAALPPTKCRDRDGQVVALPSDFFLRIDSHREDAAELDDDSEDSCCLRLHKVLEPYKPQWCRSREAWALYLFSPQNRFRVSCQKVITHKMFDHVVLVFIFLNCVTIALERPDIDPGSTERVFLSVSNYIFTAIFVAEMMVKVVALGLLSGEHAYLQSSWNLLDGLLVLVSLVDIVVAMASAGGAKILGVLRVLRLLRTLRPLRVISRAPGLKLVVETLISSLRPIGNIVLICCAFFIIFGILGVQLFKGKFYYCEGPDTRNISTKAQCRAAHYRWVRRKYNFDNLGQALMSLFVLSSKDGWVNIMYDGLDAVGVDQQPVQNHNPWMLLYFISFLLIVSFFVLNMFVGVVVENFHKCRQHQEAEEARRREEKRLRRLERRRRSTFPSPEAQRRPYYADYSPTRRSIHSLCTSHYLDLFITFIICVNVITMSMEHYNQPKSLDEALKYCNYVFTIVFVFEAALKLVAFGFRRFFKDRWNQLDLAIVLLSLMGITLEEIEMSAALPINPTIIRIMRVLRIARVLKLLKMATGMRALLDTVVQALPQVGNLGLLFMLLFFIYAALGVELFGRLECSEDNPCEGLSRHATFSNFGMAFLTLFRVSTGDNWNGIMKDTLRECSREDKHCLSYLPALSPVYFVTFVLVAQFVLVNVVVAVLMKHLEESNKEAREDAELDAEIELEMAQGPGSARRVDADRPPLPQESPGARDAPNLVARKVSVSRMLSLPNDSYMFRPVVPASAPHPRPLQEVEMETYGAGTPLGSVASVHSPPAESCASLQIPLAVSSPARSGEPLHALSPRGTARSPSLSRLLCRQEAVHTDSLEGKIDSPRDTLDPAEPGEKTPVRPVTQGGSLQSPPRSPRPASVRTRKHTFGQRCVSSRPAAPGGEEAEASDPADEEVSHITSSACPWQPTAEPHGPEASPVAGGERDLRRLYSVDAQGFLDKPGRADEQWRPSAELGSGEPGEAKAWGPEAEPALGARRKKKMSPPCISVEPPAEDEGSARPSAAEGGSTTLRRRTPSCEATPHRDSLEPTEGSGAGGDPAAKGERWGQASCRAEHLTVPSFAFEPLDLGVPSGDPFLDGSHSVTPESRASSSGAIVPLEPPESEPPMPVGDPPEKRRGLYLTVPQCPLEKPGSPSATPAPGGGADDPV

Cc1[nH]c2ccccc2c1C1C(c2ccccc2)=NN=C(C(C)C)N1O (stereo unspecified)
EC50 [1]: 16.1 µM (active)

O=C(CCn1c(=O)oc2ccccc21)N(Cc1ccccc1)c1ccccc1
IC50 [2]: > 79 µM (inactive)

O=C(Nc1ccccc1)N1CCCC(c2nc(-c3ccc(F)cc3)no2)C1 (stereo unspecified)
AC50 [3]: 39.8 µM (inconclusive) | EC50 [1]: 1.52 µM (active)

c1ccc(CN2c3ccccc3-c3nc4ccccc4n3C2c2ccccn2)cc1 (stereo unspecified)
AC50 [4]: 15.8 µM (inconclusive) | EC50 [1]: 1.94 µM (active)

Oc1ccccc1C=NNC(=S)Nc1ccc(F)cc1
IC50 [5]: 12.7 µM (active)

COC(=O)[C@@]12CCCCN1[C@H](c1ccc(-c3cc(C(C)=O)cs3)cc1)[C@H]1C(=O)N(C)C(=O)[C@H]12
IC50 [2]: > 79 µM (inactive)

S=C(NCc1ccccc1)NCC1COc2ccccc2O1 (stereo unspecified)
EC50 [1]: 3.17 µM (active)

CC(OC(=O)Cc1nnc(O)c2ccccc12)C(=O)Nc1ccc(Cl)cn1 (stereo unspecified)
IC50 [2]: 7.17 µM (active) | EC50 [6]: 9.99 µM (active) | EC50 [7]: > 150 µM (not active) | EC50 [8]: 23.1 µM (active)

CCOC(=O)N1CCN(S(=O)(=O)c2ccc(C(=O)NNc3nc4cc(C)cc(C)c4s3)cc2)CC1
IC50 [5]: > 100 µM (active) | AC50 [9]: 3.69 µM (active) | AC50 [10]: 3.67 µM (active)

COc1ccc(-c2cc(C(=O)N(C)CC(=O)Nc3cccc(F)c3)c3ccccc3n2)cc1
CC50 [11]: 36.5 µM (active)

CC#CC(=O)N1CCC(n2nccc2NC(=O)c2ccc3c(c2)OCO3)CC1
IC50 [12]: > 80 µM (inactive)

O=C(Nc1nccs1)c1ccc(-c2ccccc2[N+](=O)[O-])o1
IC50 [13]: > 100 µM (inactive)

Fc1ccc2[nH]c3c(NCc4ccccc4)ncnc3c2c1
AC50 [14]: 30.1 µM (active) | AC50 [15]: 13.1 µM (active) | AC50 [16]: 3.09 µM (active) | CC50 [11]: > 40 µM (active)

S=C(NC1CCCCC1)N(CCc1nc2ccccc2[nH]1)C1CCCC1
EC50 [1]: 5.18 µM (active)

COc1ccc(-c2nc(NC(=O)c3[nH]c(C)c(C(C)=O)c3C)sc2C)cc1
CC50 [11]: > 40 µM (active)

COc1cccc(C(=O)NCC(=O)N2CCC3(CC2)NCCc2[nH]cnc23)c1
IC50 [13]: > 100 µM (inactive)

Cc1ccc(C)c(CSc2nc(O)c3c[nH]nc3n2)c1
IC50 [12]: > 80 µM (inactive)

N#C[C@@H]1[C@H](c2ccc(C#Cc3cccc(F)c3)cc2)[C@@H](CO)N1C(=O)C1CCCC1
AC50 [17]: 16.5 µM (active) | AC50 [18]: 8.4 µM (active) | AC50 [19]: 27.1 µM (active)

COC(=O)c1nc(-c2ccccc2)oc1N(C)C
IC50 [13]: > 100 µM (inactive)

CCN(CC)c1ccc(/C=N/NC(=O)c2cccc(S(=O)(=O)Nc3ccccc3OC)c2)c(O)c1
EC50 [20]: 2.89 µM (active) | IC50 [12]: > 80 µM (inactive) | AC50 [10]: 0.237 µM (active) | EC50 [21]: 85.3 µM (active)

Cc1ccc(N(C)C(=O)Oc2cccc3ccc(C)nc23)cc1
EC50 [1]: 12.3 µM (active)

O=C(COc1ccccc1)Nc1nnc(-c2ccc(Cl)s2)o1
EC50 [1]: 25.7 µM (active)

CCCn1c(=O)c(C(=O)NCCc2ccc(Cl)cc2)c(O)c2ccccc21
IC50 [2]: > 79 µM (inactive)

O=C(Nc1cccc2ccccc12)OC1C=CS(=O)(=O)C1 (stereo unspecified)
IC50 [12]: > 80 µM (inactive)

O=C(CN1C(=O)COc2ccccc21)Nc1ccc(F)cc1
EC50 [22]: 13.8 µM (active) | EC50 [23]: 113 µM (active) | EC50 [24]: 11.9 µM (active) | IC50 [5]: 3.73 µM (active)

CC(Sc1nnc(NC2CCCCC2)s1)C(=O)Nc1ccc2c(c1)C(=O)c1ccccc1C2=O (stereo unspecified)
CC50 [11]: 29.7 µM (active)

Cc1cccc2sc(NC(=O)C3CCN(S(=O)(=O)c4cc([N+](=O)[O-])ccc4Cl)CC3)nc12
EC50 [25]: > 30 µM (not active) | IC50 [26]: 3.44 µM (active) | EC50 [27]: 0.63 µM (active)

CCN(CC)S(=O)(=O)c1ccc(N(C)CCc2ccc(OC)c(OC)c2)nc1
IC50 [13]: > 100 µM (inactive)

CC(c1ccccc1)N1C(=O)c2cccnc2C1=O (stereo unspecified)
IC50 [13]: > 100 µM (inactive)

O=C(c1ccc2c(c1)OCCO2)C1CCN(S(=O)(=O)c2ccc(F)cc2)CC1
AC50 [28]: > 52 µM (inactive) | AC50 [19]: > 52 µM (inactive)

C=CCNc1ncnc2sc(SC)nc12
IC50 [13]: > 100 µM (inactive)

COc1ccc(-c2cc(-c3nnc(COC(=O)c4ccncc4)o3)c3ccccc3n2)cc1OC
IC50 [2]: 9.82 µM (active)

O=C(Nc1nc2c(s1)CCc1ccccc1-2)c1ccco1
IC50 [13]: > 100 µM (inactive)

O=C(CN(Cc1ccccc1)C(=O)c1cc2c(s1)CCC2)NCc1cccs1
EC50 [1]: 5.32 µM (active)

O=C(CSC(=S)N1CCCC1)c1cc(Br)cc(Br)c1O
CC50 [11]: > 40 µM (active)

O=[N+]([O-])c1ccc(Nc2ccccc2)cc1
IC50 [13]: 12.7 µM (active)

COc1cccc(/C=N/NC(=O)c2nc(-c3ccccc3)cc(-c3ccccc3)n2)c1
AC50 [3]: 0.794 µM (inconclusive) | IC50 [2]: > 79 µM (inactive) | AC50 [29]: 3.16 µM (inconclusive)

Cc1ccc(NC(=O)CSc2n[nH]c(-c3ccccn3)n2)cc1
IC50 [5]: 6.74 µM (active)

— ChEMBL document CHEMBL1201862, “PubChem BioAssay data set” (2004)
